From patent US20220380378A1 (ESSA Pharma, Inc., priority 2021, published 2022)

How the values were obtained:
[1] = Microsomal stability assay, liver microsome half-life (human); type: in vitro ADME; conditions: pH 7.4; human liver microsomes 0.5 mg/mL, 1 μM compound, 37° C.; read-out: Liver microsome T1/2 Human
Source text: (§1) Microsomal Stability Assay: Microsomal stability assay is a widely used in vitro model to characterize the metabolic conversion by phase I enzymes, such as cytochrome P450 (CYP) enzymes. Since metabolism is known to be highly variable in different species, microsomal stability assay is commonly run in multiple species. Metabolic stability of testing compound can be evaluated using human, rat, mouse, or other animal liver or intestine microsomes to predict intrinsic clearance.
(§2) The assay was carried out in 96-well microtiter plates at 37° C. Reaction mixtures (25 μL) contained a final concentration of 1 μM test compound, 0.5 mg/mL liver microsomes protein, and 1 mM NADPH and/or 1 mM UDPGA (with alamethicin) in 100 mM potassium phosphate, pH 7.4 buffer with 3 mM MgCl2. The incubation was done with N=1, but duplicate incubation at each time point can be prepared if necessary. At each of the time points (for example, 0, 15, 30, and 60 minutes), 150 μL of quench solution (100% acetonitrile with 0.1% formic acid) with internal standard was transferred to each well. Besides the zero minute controls, mixtures containing the same components except the NADPH can also be prepared as the negative control. Verapamil was included as a positive control to verify assay performance. Plates were sealed, vortexed, and centrifuged at 4° C. for 15 minutes at 4000 rpm. The supernatant is transferred to fresh plates for LC/MS/MS analysis.
(§3) Summarized conditions: [Compound]=1 μM, [LM]=0.5 mg/mL, [NADPH]=1 mM and/or [UDPGA]=1 mM, Buffer=100 mM Potassium Phosphate, pH 7.4 with 3 mM MgCl2, Time=0, 15, 30, and 60 min, and Temperature=37° C.
(§4) All samples were analyzed on LC/MS/MS using an AB Sciex API 4000 instrument, coupled to a Shimadzu LC-20AD LC Pump system. Analytical samples were separated using a Waters Atlantis T3 dC18 reverse phase HPLC column (20 mm×2.1 mm) at a flow rate of 0.5 mL/min. The mobile phase consisted of 0.1% formic acid in water (solvent A) and 0.1% formic acid in 100% acetonitrile (solvent B).
(§5) The extent of metabolism is calculated as the disappearance of the test compound, compared to the 0-min time incubation. Initial rates are calculated for the compound concentration and used to determine half-life (t½). […]

[2] = Microsomal stability assay, liver microsome half-life (mouse); type: in vitro ADME; conditions: pH 7.4; mouse liver microsomes 0.5 mg/mL, 1 μM compound, 37° C.; read-out: Liver microsome T1/2 Mouse
Source text: as §1, §2, §3, §4, §5

[3] = Microsomal stability assay, liver microsome half-life (rat); type: in vitro ADME; conditions: pH 7.4; rat liver microsomes 0.5 mg/mL, 1 μM compound, 37° C.; read-out: Liver microsome T1/2 Rat
Source text: as §1, §2, §3, §4, §5

[4] = Microsomal stability assay, liver microsome half-life (dog); type: in vitro ADME; conditions: pH 7.4; dog liver microsomes 0.5 mg/mL, 1 μM compound, 37° C.; read-out: Liver microsome T1/2 Dog
Source text: as §1, §2, §3, §4
(§6) The extent of metabolism is calculated as the disappearance of the test compound, compared to the 0-min time incubation. Initial rates are calculated for the compound concentration and used to determine half-life (t½).

[5] = Microsomal stability assay, liver microsome half-life (monkey); type: in vitro ADME; conditions: pH 7.4; monkey liver microsomes 0.5 mg/mL, 1 μM compound, 37° C.; read-out: Liver microsome T1/2 Monkey
Source text: as §1, §2, §3, §4, §6

[6] = target: T1, androgen receptor (AR) (Homo sapiens, UniProt P10275, T878A); test: Androgen-induced PSA (6.1 kb)-luciferase reporter assay in LNCaP cells (R1881 1 nM); type: cell-based; design: endogenous in cells; host or cells: LNCaP; conditions: 24 h, read-out: PSA-Luc IC50 Range
T1 sequence (P10275 1-920 T878A): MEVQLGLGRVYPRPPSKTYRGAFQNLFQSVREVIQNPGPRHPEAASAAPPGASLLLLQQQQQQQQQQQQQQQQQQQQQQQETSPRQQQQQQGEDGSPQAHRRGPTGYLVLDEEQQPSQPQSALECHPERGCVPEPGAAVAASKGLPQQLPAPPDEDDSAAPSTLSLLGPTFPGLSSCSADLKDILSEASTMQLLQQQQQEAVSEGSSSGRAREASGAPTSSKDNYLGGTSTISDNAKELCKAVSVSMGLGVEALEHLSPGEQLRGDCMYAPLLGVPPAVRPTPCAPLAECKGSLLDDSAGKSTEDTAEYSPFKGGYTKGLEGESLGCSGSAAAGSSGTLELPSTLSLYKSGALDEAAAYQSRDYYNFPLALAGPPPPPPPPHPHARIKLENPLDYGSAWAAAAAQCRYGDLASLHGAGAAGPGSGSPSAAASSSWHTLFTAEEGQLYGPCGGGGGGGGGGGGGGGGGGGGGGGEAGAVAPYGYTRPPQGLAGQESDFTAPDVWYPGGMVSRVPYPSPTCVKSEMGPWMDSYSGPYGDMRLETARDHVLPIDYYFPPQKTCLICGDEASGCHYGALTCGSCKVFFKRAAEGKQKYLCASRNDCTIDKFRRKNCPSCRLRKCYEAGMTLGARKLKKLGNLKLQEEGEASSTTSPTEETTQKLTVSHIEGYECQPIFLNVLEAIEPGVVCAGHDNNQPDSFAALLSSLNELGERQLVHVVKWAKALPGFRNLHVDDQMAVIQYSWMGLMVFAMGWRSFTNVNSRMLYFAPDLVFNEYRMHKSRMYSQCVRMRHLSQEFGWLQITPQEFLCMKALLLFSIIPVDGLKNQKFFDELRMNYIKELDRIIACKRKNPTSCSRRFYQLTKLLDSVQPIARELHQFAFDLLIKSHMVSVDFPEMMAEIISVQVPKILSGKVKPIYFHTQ
In short: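 Compound or vehicle was added 1 h before 1 nM R1881 to LNCaP cells carrying a transiently transfected (24 h) PSA (6.1 kb)-luciferase reporter. After 24 h androgen exposure, lysate luminescence was normalized to protein and expressed versus vehicle plus R1881 for IC50.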

| SMILES | half-life at 1 μM [1] | half-life at 1 μM [2] | half-life at 1 μM [3] | half-life at 1 μM [4] | half-life at 1 μM [5] | IC50 [6] |
| --- | --- | --- | --- | --- | --- | --- |
| CS(=O)(=O)NC12CC(COc3ccc4c(ccn4-c4cc(Cl)c(OCCCl)c(C#N)c4)c3)(C1)C2 [Compound A57, N-(3-(((1-(3-chloro-4-(2-chloroethoxy)-5-cyanophenyl)-1H-indol-5-yl)oxy)methyl)bicyclo[1.1.1]pentan-1-yl)methanesulfonamide] | 1.15 h | > 2 h | > 2 h | > 2 h | 1.13 h | < 500 nM |
| CS(=O)(=O)N1CC(COc2ccc3c(ccn3-c3cc(Cl)c(OCCCl)c(C#N)c3)c2)C1 [Compound A59] | 0.183 h | > 2 h | > 2 h | 0.967 h | 0.117 h | < 500 nM |
| CC(C)(c1ccc(OCc2cnc(NS(C)(=O)=O)nc2N2CCOCC2)cc1)c1cc(Cl)c(OCCCl)c(C#N)c1 [Compound A100] | > 2 h | 1.6 h | 0.85 h | > 2 h | 0.633 h | < 500 nM |
| CS(=O)(=O)NC1CN(CCc2ccc3c(ccn3-c3cc(Cl)c(OCCCl)c(C#N)c3)c2)C1 [Compound A126, N-(1-(2-(1-(3-chloro-4-(2-chloroethoxy)-5-cyanophenyl)-1H-indol-5-yl)ethyl)azetidin-3-yl)methanesulfonamide] | > 2 h | > 2 h | 0.95 h | 0.733 h | 0.583 h | 500 to 2000 nM |
| CC(C)(c1ccc(OCC23CC(NS(C)(=O)=O)(C2)C3)cc1)c1cc(Cl)c(OCCCl)c(C#N)c1 [Compound A132, N-(3-((4-(2-(3-chloro-4-(2-chloroethoxy)-5-cyanophenyl)propan-2-yl)phenoxy)methyl)bicyclo[1.1.1]pentan-1-yl)methanesulfonamide] | > 2 h | > 2 h | 1.62 h | > 2 h | 0.95 h | 500 to 2000 nM |

Other lines, results leading:

| half-life at 1 μM [1] | half-life at 1 μM [2] | half-life at 1 μM [3] | half-life at 1 μM [4] | half-life at 1 μM [5] | IC50 [6] | SMILES |
| --- | --- | --- | --- | --- | --- | --- |
| > 2 h | > 2 h | > 2 h | 1.78 h | > 2 h | < 500 nM | CC(C)(c1ccc(-c2ccc3nc(NS(C)(=O)=O)ncc3c2)cc1)c1cc(Cl)c(OCCCl)c(C#N)c1 [Compound A51, N-[6-(4-{2-[3-chloro-4-(2-chloroethoxy)-5-cyanophenyl]propan-2-yl}phenyl)quinazolin-2-yl]methanesulfonamide] |
| > 2 h | > 2 h | > 2 h | > 2 h | > 2 h | < 500 nM | CC(C)(c1ccc(-c2ccc3nc(NS(C)(=O)=O)cnc3c2)cc1)c1cc(Cl)c(OCCCl)c(C#N)c1 [Compound A107, N-(6-(4-(2-(3-chloro-4-(2-chloroethoxy)-5-cyanophenyl)propan-2-yl)phenyl)quinoxalin-2-yl)methanesulfonamide] |
| 1.93 h | > 2 h | > 2 h | > 2 h | > 2 h | 500 to 2000 nM | CC(C)(c1ccc(-c2ccn3nc(NS(C)(=O)=O)nc3c2)cc1)c1cc(Cl)c(OCCCl)c(C#N)c1 [Compound A113] |
| > 2 h | > 2 h | > 2 h | 1.05 h | > 2 h | 500 to 2000 nM | CC(C)(c1ccc(-c2ccc3c(c2)CCN(S(C)(=O)=O)C3)cc1)c1cc(Cl)c(OCCCl)c(C#N)c1 [Compound A114] |
| > 2 h | > 2 h | > 2 h | > 2 h | > 2 h | 500 to 2000 nM | CS(=O)(=O)Nc1ncc2cc(-c3ccc(Oc4cc(Cl)c(OCCCl)c(C#N)c4)cc3)ccc2n1 [Compound A116, N-(6-(4-(3-chloro-4-(2-chloroethoxy)-5-cyanophenoxy)phenyl)quinazolin-2-yl)methanesulfonamide] |
